Columns and labels:
obese ZSF1 rats = settings: mean±SD
[1] = system: phospho (S293) BCKDHA in human skeletal myocytes; assay: Phospho BCKDHA Alpha Surefire Cell Assay; assay type: cell-based; settings: Homo sapiens, 1 h, 60 minutes with compound, geometric mean

Compound	IC50 [1] [µM]	further results
O=C(O)c1sc2cc(Cl)ccc2c1Cl [BT2]	–	kidney weights (obese ZSF1 rats; diet containing 1.36 g BT2/kg, after 4 additional weeks (8 weeks) of treatment): 2.09 ± 0.1 g; urine protein normalized to creatinine (obese ZSF1 rats; diet containing 1.36 g BT2/kg, after 4 weeks of treatment, BCA assay): 55.4±7.2 mg protein/mg creatinine; urine produced in 5 hour urine collection (obese ZSF1 rats; diet containing 1.36 g BT2/kg, after 4 weeks of treatment): 4.4 ± 2.7 mL; diabetic nephropathy score (obese ZSF1 rats; histology graded on a scale of 0-4, after 8 weeks of BT2 diet): 2.9±0.8
COc1c(C#N)cc(F)c(-c2c(C(=O)O)sc3cc(F)ccc23)c1F [Example 75, 3-(4-cyano-2,6-difluoro-3-methoxyphenyl)-6-fluoro-1-benzothiophene-2-carboxylic acid]	> 60	–
COc1c(C#N)ccc(-c2c(C(=O)O)sc3cc(F)ccc23)c1F [Example 49, 3-(4-cyano-2-fluoro-3-methoxyphenyl)-6-fluoro-1-benzothiophene-2-carboxylic acid]	7.5	–
COc1c(F)c(F)cc(-c2c(C(=O)O)oc3cc(F)ccc23)c1F [Example 17, 6-Fluoro-3-(2,4,5-trifluoro-3-methoxyphenyl)-1-benzofuran-2-carboxylic acid]	0.88	–
COc1c(F)c(F)cc(-c2c(C(=O)O)sc3ccccc23)c1F [Example 157, 3-(2,4,5-trifluoro-3-methoxyphenyl)-1-benzothiophene-2-carboxylic acid]	0.23	–
Cc1cc(-c2c(C(=O)O)sc3cc(Cl)ccc23)c(F)cc1F [Example 137, 6-chloro-3-(2,4-difluoro-5-methylphenyl)-1-benzothiophene-2-carboxylic acid]	0.54	–
COc1ccc(-c2c(C(=O)O)sc3cc(F)ccc23)c(F)c1F [Example 35, 3-(2,3-difluoro-4-methoxyphenyl)-6-fluoro-1-benzothiophene-2-carboxylic acid]	> 60	–

Now from value to compound, other results behind:

IC50 [1] [µM]	Compound	further results
0.066	Cc1c(F)c(F)cc(-c2c(C(=O)O)sc3cc(Cl)ccc23)c1F [Example 10, 6-Chloro-3-(2,4,5-trifluoro-3-methylphenyl)-1-benzothiophene-2-carboxylic acid]	–
0.094	O=C(O)c1sc2cc(F)ccc2c1-c1cc(Cl)c(Cl)cc1F [Example 7, 3-(4,5-Dichloro-2-fluorophenyl)-6-fluoro-1-benzothiophene-2-carboxylic acid]	–
0.2	CCc1c(F)ccc(-c2c(C(=O)O)sc3cc(Cl)ccc23)c1F [Example 143, 6-chloro-3-(3-ethyl-2,4-difluorophenyl)-1-benzothiophene-2-carboxylic acid]	–

From US12466803B2 (priority 2021, dated 2025)
